Measurements from patent US8642545B2, “Erythropoietin mimetic peptide derivative and its pharmaceutical salts, the preparation and uses thereof” (Jiangsu Hansoh Pharmaceutical Co., Ltd, priority 2007, dated 2014).
Like-named read-outs stand apart in the source and are kept apart here. *1 amine or outer side, *2 acyl side, *3 side chain or, on linkers, in order; H or OH if unused. Bridges are numbered along the chain shown (N, C = ends). Roman numbers before positions name the chains, in order. [ ]: non-standard residue; d: D form. ξ: configuration not given here. X1 = NCCNC(=O)OC(CCC(=O)[*:1])CCC(=O)[*:2]; Nle = CCCC[C@H](N)C(=O)O; ξK = NCCCCC(N)C(=O)O; βAla = NCCC(=O)O

Key:
erythropoiesis of mice = assay: Effects of EPO mimetic peptide derivatives on mice, sc injection on three consecutive days, peripheral blood cell and reticulocyte counts; format: in vivo, Kunming mice; conditions: for Platelet / White Blood Cell: 4.5 mg/kg
Description: The biological activity of EPO, or EPO mimetic peptide derivatives and their pharmaceutical salts provided by this invention can be determined by various assays known in this field. Testing of in vivo activity is performed as follows: mice are subcutaneously injected with EPO and EPO mimetic peptide derivatives and their pharmaceutical salts provided by this invention on three consecutive days. The mice are then sacrificed. The whole blood is taken to carry out peripheral blood cells and reticulocyte count. The blood cell count is performed by automatic blood cell counter. […] The dose of EPO protein as a control drug is 240 μ/kg. The drugs are administered three times per week and the administration continues for six weeks. The blood samples are collected to carry out related hematological index analysis. The purpose of the experiments is to evaluate and compare the effects of EPO mimetic peptide derivatives and the EPO protein on erythropoiesis of mice. […] EPO is purchased from […] Pharmaceutical Co., Ltd. Kunming mice are purchased from the Chinese Academy of Sciences Shanghai Experimental Animal Center, weighing 25 30 g, ♀. The number of animals in each group is 10. Mice are injected subcutaneously with EPO mimetic peptide derivatives and EPO protein for three consecutive days. Then the mice are killed, the whole blood is used to carry out peripheral blood cells and reticulocyte counts. Blood cell count is performed using automatic blood cell counter counts.

[1] = system: EPO binding sites on red blood cells from the spleen; conditions: about 400 binding sites, some, cited from earlier work
[2] = system: EPO binding sites on immature red blood cells; conditions: cited from earlier work
[3] = system: erythropoiesis of the macaques; assay: Effects of EPO mimetic peptide derivatives on macaques, hematological indexes; format: in vivo
Description: The biological activity of EPO, or EPO mimetic peptide derivatives and their pharmaceutical salts provided by this invention can be determined by various assays known in this field. Testing of in vivo activity is performed as follows: mice are subcutaneously injected with EPO and EPO mimetic peptide derivatives and their pharmaceutical salts provided by this invention on three consecutive days. The mice are then sacrificed. The whole blood is taken to carry out peripheral blood cells and reticulocyte count. The blood cell count is performed by automatic blood cell counter. Pharmacodynamic studies are carried out by intravenous administration to macaques with a dose of 1.35 mg/kg. The dose of EPO protein as a control drug is 240 μ/kg. The drugs are administered three times per week and the administration continues for six weeks. The blood samples are collected to carry out related hematological index analysis.
The purpose of this experiment is to evaluate the effects of EPO mimetic peptide derivatives on erythropoiesis of the macaques.
EPO mimetic peptide HH-EPO-018 is provided by Jiangsu Hansoh Pharmaceutical co., LTD. EPO is purchased from Shenyang Sansheng Pharmaceutical Co., Ltd. The samples are diluted in a saline containing 0.1% BSA before they are used.
Macaques, weighing 5.5˜8.5 kg, male or female, are purchased from Suzhou Xishan Zhongke Laboratory Animal Center. Macaques are grouped according to the basis of hemoglobin with each group having three macaques. HH-EPO-018 is intravenously injected once at a dose of 1.35 mg/kg; EPO is injected three times per week at a dose of 240 μg/kg. The administration is continued for five weeks. Measure hematological indexes are measured 1˜2 times per week.

[4] = macaques, 240 μg/kg three times per week, five weeks
[5] = current dosage regimen, three consecutive days

I: Ac-GGTYSCHFGPLTWVCRPQRG[βAla][ξK]-NH2 / II: Ac-GGTYSCHFGPLTWVCRPQRG[βAla][ξK]-NH2 (disulfide I:6-I:15, II:6-II:15; linker I:22-II:22 via X1) [HH-EPO-005]
Platelet (erythropoiesis of mice; mouse, d1-3): 1957.8 ± 349.5 ×10^3/μL
White Blood Cell (erythropoiesis of mice; mouse, d1-3): 4.2 ± 1.2 ×10^3/μL

I: Ac-GGTYSCHFGALTWVCRPQRG[βAla][ξK]-NH2 / II: Ac-GGTYSCHFGALTWVCRPQRG[βAla][ξK]-NH2 (disulfide I:6-I:15, II:6-II:15; linker I:22-II:22 via X1) [HH-EPO-008]
Platelet (erythropoiesis of mice; mouse, d1-3): 1685.5 ± 351.3 ×10^3/μL
White Blood Cell (erythropoiesis of mice; mouse, d1-3): 2.9 ± 0.5 ×10^3/μL

EPO: EPO protein purchased from Shenyang Sansheng Pharmaceutical Co., Ltd.; control drug
Kd ([1]; "high Kd"): 0.1 nM
Kd ([1]; "low Kd"): 0.8 nM
Kd ([2]; about 300 binding sites of about 800 to 1000 per cell membrane): 0.09 nM
Kd ([2]; remaining binding sites, weak binding): ~0.57 nM
stimulation on macaque hemoglobin generation, HH-EPO-018 compared with EPO (in words) ([3]; according to the current dosing regimens): similar
blood cell hematocrit (in words) [3, 4]: increases
peripheral blood hemoglobin content (in words) [3, 4]: increases
influence on mature red blood cells, blood cell hematocrit, hemoglobin content (in words) (erythropoiesis of mice; [5]): no significant influence
mouse peripheral blood reticulocyte count (in words) (erythropoiesis of mice; [5]): significantly promote the increase
Blood Cell Hematocrit (erythropoiesis of mice; mouse, 5 μg/kg, d1-3): 46.2 ± 2.7%
Red Blood Cell Count (erythropoiesis of mice; mouse, 5 μg/kg, d1-3, x ± SD): 9.0 ± 0.6 ×10^6/μL
Reticulocyte Count (erythropoiesis of mice; mouse, 5 μg/kg, d1-3, x ± SD): 483.9 ± 146.5 ×10^9/L
influence on the peripheral white blood cell count (in words) (erythropoiesis of mice; mouse, in vivo): no significant influence

I: Ac-GGTYSCHFGSLTWVCRPQRG[βAla][ξK]-NH2 / II: Ac-GGTYSCHFGSLTWVCRPQRG[βAla][ξK]-NH2 (disulfide I:6-I:15, II:6-II:15; linker I:22-II:22 via X1) [HH-EPO-007]
Platelet (erythropoiesis of mice; mouse, d1-3): 2082.1 ± 863.9 ×10^3/μL
White Blood Cell (erythropoiesis of mice; mouse, d1-3): 3.6 ± 0.8 ×10^3/μL

I: Ac-GGTYSC[Nle]FGPLTWVCRPQRG[βAla][ξK]-NH2 / II: Ac-GGTYSC[Nle]FGPLTWVCRPQRG[βAla][ξK]-NH2 (disulfide I:6-I:15, II:6-II:15; linker I:22-II:22 via X1) [HH-EPO-006]
Platelet (erythropoiesis of mice; mouse, d1-3): 1087.8 ± 118.5 ×10^3/μL
White Blood Cell (erythropoiesis of mice; mouse, d1-3): 4.1 ± 1.2 ×10^3/μL
